We go through twelve compounds from patent publication US7601722B2, “Aryl sulfamide derivatives and methods of their use” (Wyeth, priority 2006, dated 2009).

One data set addresses hNET (Homo sapiens, UniProt P23975). Nature of the data set: hNET binding according to Mahaney et al. The settings on record: hNET binding per footnote, printed in the NE uptake column.
The target in data set [1] is Dopamine Transporter (hDAT) (Homo sapiens, UniProt Q01959). As to the kind of experiment: Dopamine Transporter (hDAT) Membrane Binding Assay.
Chain of Dopamine Transporter (hDAT) (Q01959 whole entry): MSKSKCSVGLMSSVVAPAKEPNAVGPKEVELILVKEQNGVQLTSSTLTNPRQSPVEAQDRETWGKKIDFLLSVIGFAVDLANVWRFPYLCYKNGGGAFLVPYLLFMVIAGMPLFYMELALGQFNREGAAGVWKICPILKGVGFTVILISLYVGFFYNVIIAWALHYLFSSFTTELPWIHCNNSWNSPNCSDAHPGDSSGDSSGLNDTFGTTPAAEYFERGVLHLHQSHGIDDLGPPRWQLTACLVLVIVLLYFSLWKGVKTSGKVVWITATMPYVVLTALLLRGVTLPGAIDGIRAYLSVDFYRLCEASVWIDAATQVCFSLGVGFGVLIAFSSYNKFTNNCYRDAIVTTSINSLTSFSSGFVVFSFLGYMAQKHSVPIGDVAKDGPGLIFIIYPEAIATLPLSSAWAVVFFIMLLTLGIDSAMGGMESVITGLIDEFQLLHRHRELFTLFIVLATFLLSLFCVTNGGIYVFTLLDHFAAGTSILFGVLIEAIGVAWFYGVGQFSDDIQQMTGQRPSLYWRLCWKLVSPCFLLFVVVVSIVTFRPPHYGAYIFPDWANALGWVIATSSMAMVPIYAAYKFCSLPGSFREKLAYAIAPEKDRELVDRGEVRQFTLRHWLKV
Data set [2] in a line: Rat Liver Microsomal Stability Assay. The class given is in vitro ADME. The settings on record: pH 7.4; rat liver microsomes, 37° C., NADPH, Time 0 and Time 15 min; read-out: RLM stability t1/2. How it is done: Rat Liver Microsomal Stability Assay:
DMSO stock solutions of test compounds were prepared at 0.5 mM concentration. Diluted solutions of test compounds were prepared by adding 50 uL of each DMSO stock solution to 200 uL of acetonitrile to make 0.1 mM solutions in 20% DMSO/80% acetonitrile. Rat liver microsomal solution was prepared by adding 1.582 mL of concentrated rat liver microsomes (20 mg/mL protein concentration) to 48.291 mL of pre-warmed (to 37° C.) 0.1M potassium phosphate buffer (pH 7.4) containing 127 uL of 0.5 M EDTA to make a 0.6329 mg/mL (protein) microsomal solution. 11.2 uL of each test compound diluted solution was each added directly to 885 uL of rat liver microsomal solution (allowing direct binding of drugs to microsomal proteins and lipids to minimize precipitation and non-specific binding to the plasticware). This solution was mixed and 180 uL was transferred to “Time 0” and “Time 15 min” plates (each in duplicate wells). For the Time 15 min plate, NADPH regenerating agent (45 uL) was added to each well to initiate the reaction, the plate was incubated at 37° C. for 15 min, followed by quenching of the reaction by adding 450 uL of cold acetonitrile to each well. For the Time 0 plate, 450 uL of cold acetonitrile was added to each well, followed by addition of NADPH regenerating agent (45 uL) and no incubation. All of the plates were centrifuged at 3000 rpm for 15 min and the supernatants were transferred to other well plates for analysis by LC-MS.

The target of data set [3] is T1, Cloned Human NE Transporters (Homo sapiens, UniProt P23975).
T1 construct: expressed in transfected cells; host or cells: MDCK
T1 sequence (P23975 whole entry): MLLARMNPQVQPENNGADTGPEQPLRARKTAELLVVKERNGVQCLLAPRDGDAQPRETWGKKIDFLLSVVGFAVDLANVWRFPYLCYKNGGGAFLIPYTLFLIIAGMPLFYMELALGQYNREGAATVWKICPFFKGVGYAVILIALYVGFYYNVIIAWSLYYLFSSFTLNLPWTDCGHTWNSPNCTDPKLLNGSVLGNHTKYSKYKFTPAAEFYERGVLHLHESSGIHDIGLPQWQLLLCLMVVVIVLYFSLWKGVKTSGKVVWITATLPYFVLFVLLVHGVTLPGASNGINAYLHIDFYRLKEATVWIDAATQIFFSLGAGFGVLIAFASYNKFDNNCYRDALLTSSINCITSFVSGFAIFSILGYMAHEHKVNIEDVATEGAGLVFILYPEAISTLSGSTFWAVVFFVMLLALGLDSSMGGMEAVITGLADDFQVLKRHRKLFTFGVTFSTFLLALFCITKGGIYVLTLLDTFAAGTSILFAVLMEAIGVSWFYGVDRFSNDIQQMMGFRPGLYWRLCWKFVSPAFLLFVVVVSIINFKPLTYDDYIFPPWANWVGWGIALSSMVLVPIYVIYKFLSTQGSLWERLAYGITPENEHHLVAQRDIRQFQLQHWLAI
As to the kind of experiment: hNET Assay Procedure Protocol A: inhibition of [3H] NE uptake (MDCK cells) (hNET uptake). It is filed as cell-based. The settings on record: MDCK cells expressing hNET, [3H] NE 16 nM. On the procedure:
hNET Assay Procedure Protocol A: Inhibition of [^3H] NE Uptake into Cloned Human NE Transporters (MDCK Cells) (“hNET uptake”)
[^3H] […] Cells were seeded at 300,000/T75 flask, and split twice weekly.
All uptake experiments were performed in 96-well plates (Falcon Optilux, cat #353947) in a total volume of 250 μl/well. MDCK cells were plated at 50,000 cells/well. […] 25 μl of each test compound was subsequently added to plates in triplicate and incubated at 37° C. for 5 minutes. All test compounds were dissolved in 100% DMSO and diluted in 4% DMSO/H2O, and assayed using a 7-point dose response curve (1 nM-10 μM). Next, 25 μl of [^3H] NE (74.9 Ci/mmol, Perkin Elmer, Boston, Mass.) was added to all wells and incubated at 37° C. for an additional 5 minutes. Non-specific uptake was defined by 20 μM desipramine. The final concentrations of [^3H] NE was 16 nM, respectively. The reaction was terminated by aspiration and washed with ice cold 50 mM Tris (pH 7.4). […] 100 μl of Microscint-20 were added to each well (Packard, Perkin Elmer, Boston, Mass.), and the plates were counted using a TopCount (Perkin Elmer, Downer's Grove, Ill.) liquid scintillation counter. […]
IC50 values were calculated using a Prism® nonlinear regression program where % inhibition is plotted versus concentration of inhibitor.

Counter-ions that a name gives are not always drawn.

Chain of hNET (P23975 whole entry): as above

The compound `NCC1CCN(CCN2c3ccccc3N(c3ccccc3)S2(=O)=O)C1` (stereo not shown) [Example 105, 1-{1-[2-(2,2-dioxido-3-phenyl-2,1,3-benzothiadiazol-1(3H)-yl)ethyl]pyrrolidin-3-yl}methanamine dihydrochloride] displayed an IC50 on hNET of 289 nM.
In the case of `O=S1(=O)N(CC[C@H]2CNCCO2)c2ccccc2N1c1ccccc1` [Example 135, 1-{2-[(2S)-morpholin-2-yl]ethyl}-3-phenyl-1,3-dihydro-2,1,3-benzothiadiazole2,2-dioxide], the IC50 in data set [1] was 479 nM. Also, in data set [2], the half-life at 1 µM stood at 5 min.
For `O=S1(=O)N(CC[C@@H]2CNCCO2)c2ccccc2N1c1ccccc1` [Example 136, 1-{2-[(2R)-morpholin-2-yl]ethyl}-3-phenyl-1,3-dihydro-2,1,3-benzothiadiazole2,2-dioxide], in data set [1], the 50% inhibitory concentration (IC50) was 598 nM. The half-life at 1 µM in data set [2] was found to be 3 min.
For the compound `O=S1(=O)N(CCC2CNCCO2)c2ccccc2N1c1ccc(F)cc1` (stereo not shown) [Example 137, 1-(4-fluorophenyl)-3-(2-morpholin-2-ylethyl)-1,3-dihydro-2,1,3-benzothiadiazole 2,2-dioxide], the half-life at 1 µM in data set [2] amounted to 9 min.
Turning to `O=S1(=O)N(CC[C@@H]2CNCCO2)c2ccccc2N1c1ccc(F)cc1` [Example 139, 1-(4-fluorophenyl)-3-{2-[(2R)-morpholin-2-yl]ethyl}-1,3-dihydro-2,1,3-benzothiadiazole2,2-dioxide], the half-life at 1 µM in data set [2] was found to be 10 min.
The same measure, in the same setting: the same measure for `O=S1(=O)N(CC[C@H]2CNCCO2)c2ccccc2N1c1ccc(F)cc1F` [Example 141, 1-(2,4-difluorophenyl)-3-{2-[(2S)-morpholin-2-yl]ethyl}-1,3-dihydro-2,1,3-benzothiadiazole2,2-dioxide]: 2 min.
As to `COc1cccc(N2c3ccccc3N(CC[C@H]3CNCCO3)S2(=O)=O)c1` [Example 146, 1-(3-methoxyphenyl)-3-{2-[(2S)-morpholin-2-yl]ethyl}-1,3-dihydro-2,1,3-benzothiadiazole2,2-dioxide], the half-life at 1 µM in data set [2] came out at 5 min.
In turn, `O=S1(=O)N(CC[C@H]2CNCCO2)c2ccccc2N1c1ccccc1F` [Example 148, 1-(2-fluorophenyl)-3-{2-[(2S)-morpholin-2-yl]ethyl}-1,3-dihydro-2,1,3-benzothiadiazole2,2-dioxide] had an IC50 in data set [1] of 1400 nM. Also, the half-life at 1 µM in data set [2] was determined as 4 min.
Compound `O=S1(=O)N(CC[C@@H]2CNCCO2)c2ccccc2N1c1ccccc1F` [Example 149, 1-(2-fluorophenyl)-3-{2-[(2R)-morpholin-2-yl]ethyl}-1,3-dihydro-2,1,3-benzothiadiazole2,2-dioxide] had a concentration for half-maximal inhibition (IC50) in data set [1] of 2190 nM. Besides, the half-life at 1 µM in data set [2] was found to be 5 min.
With `O=S1(=O)N(CC[C@H]2CNCCO2)c2ccccc2N1c1c(F)cccc1F` [Example 150, 1-(2,6-difluorophenyl)-3-{2-[(2S)-morpholin-2-yl]ethyl}-1,3-dihydro-2,1,3-benzothiadiazole2,2-dioxide], in data set [2], the half-life at 1 µM was 3 min.
At hNET, `CN(C)CCOCCN1c2ccccc2N(c2ccc(F)cc2F)S1(=O)=O` [Example 170, 2-{2-[3-(2,4-difluorophenyl)-2,2-dioxido-2,1,3-benzothiadiazol-1(3H)-yl]ethoxy}-N,N-dimethylethanamine hydrochloride] returned a half-inhibitory concentration (IC50) of 207 nM.
As for `O=S1(=O)N(CCCCN2CCOCC2)c2ccccc2N1c1ccc(Cl)cc1` [Example 180, 1-(4-chlorophenyl)-3-(4-morpholin-4-ylbutyl)-1,3-dihydro-2,1,3-benzothiadiazole2,2-dioxide], in data set [3], it took 1760 nM to reach half-maximal inhibition (IC50).
